Patent US11446287B2, “Compounds and methods for EP300 or CBP modulation and indications therefor” (Opna Immuno-Oncology SA, priority 2019, dated 2022)
pIC50: −log10 of the molar value.

What follows are compounds tested against T1, Recombinant human BRD4 containing dual bromodomains (BRD4-BD12 (1-477)) (Homo sapiens, UniProt O60885) (assay: BRD4 Alphascreen binding assay).
T1 construct: Recombinant human BRD4 containing dual bromodomains (BRD4-BD12 (1-477)); made in house; host or cells: E. coli BL21-CodonPlus (DE3), modified pET vector
Outline: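 His-tagged human BRD4 tandem bromodomains (1-477, E. coli) incubated 1 h at room temperature with biotinylated tetra-acetylated H4 (1-21) peptide and compound in HEPES pH 7.5 buffer with 2 mM DTT. AlphaScreen signal read 30 min after adding beads (7.5 μg/ml); IC50 from four-parameter fit after normalization to controls.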
With `Cc1noc(C)c1-c1cnc2c(-c3cccc(C(=O)O)c3)c(C(F)(F)F)n([C@@H](C)c3ccccn3)c2c1` [P-0162, (S)-3-(6-(3,5-dimethylisoxazol-4-yl)-1-(1-(pyridin-2-yl)ethyl)-2-(trifluoromethyl)-1H-pyrrolo[3,2-b]pyridin-3-yl)benzoic acid] the pIC50 was 3.00 to 5.10. `Cc1noc(C)c1-c1cnc2c(C(O)(C3CC3)C3CC3)cn(-c3ccc(C(=O)O)cc3OC(F)(F)F)c2c1` [P-0163, 4-(3-(dicyclopropyl(hydroxy)methyl)-6-(3,5-dimethylisoxazol-4-yl)-1H-pyrrolo[3,2-b]pyridin-1-yl)-3-(trifluoromethoxy)benzoic acid] was tested, and the pIC50 was 3.00 to 5.10. With `Cc1noc(C)c1-c1cnc2c(-c3cc(C(=O)O)ccc3Cl)cn(C(C)(c3ccccn3)c3ccccn3)c2c1` [P-0164, 4-chloro-3-(1-(1,1-di(pyridin-2-yl)ethyl)-6-(3,5-dimethylisoxazol-4-yl)-1H-pyrrolo[3,2-b]pyridin-3-yl)benzoic acid] the pIC50 was 5.10 to 6.00. `CCOc1cc(C(=O)O)cc(OCC)c1-n1cc(C(O)(C2CC2)C2CC2)c2ncc(-c3c(C)noc3C)cc21` [P-0165, 4-(3-(dicyclopropyl(hydroxy)methyl)-6-(3,5-dimethylisoxazol-4-yl)-1H-pyrrolo[3,2-b]pyridin-1-yl)-3,5-diethoxybenzoic acid] showed a pIC50 of 3.00 to 5.10. Work on `Cc1noc(C)c1-c1cnc2c(-c3cc(C(=O)O)ccc3C#N)cn(C(C)(c3ccccn3)c3ccccn3)c2c1` [P-0166, 4-cyano-3-(1-(1,1-di(pyridin-2-yl)ethyl)-6-(3,5-dimethylisoxazol-4-yl)-1H-pyrrolo[3,2-b]pyridin-3-yl)benzoic acid] yielded a pIC50 of 6.00 to 10.00. Work on `C#Cc1ccccc1-c1cn(C(C)(c2ccccn2)c2ccccn2)c2cc(-c3c(C)noc3C)cnc12` [P-0167, 4-(1-(1,1-di(pyridin-2-yl)ethyl)-3-(2-ethynylphenyl)-1H-pyrrolo[3,2-b]pyridin-6-yl)-3,5-dimethylisoxazole] yielded a pIC50 of 6.00 to 10.00. With `CCOc1cc(C(=O)O)cc(OCC)c1-n1cc(-c2ccccc2)c2ncc(-c3c(C)noc3C)cc21` [P-0168, 4-(6-(3,5-dimethylisoxazol-4-yl)-3-phenyl-1H-pyrrolo[3,2-b]pyridin-1-yl)-3,5-diethoxybenzoic acid] the pIC50 was 5.10 to 6.00. With `Cc1noc(C)c1-c1cnc2c(-c3ccccc3C#N)cn(C(C)(c3ccccn3)c3ccccn3)c2c1` [P-0169, 2-(1-(1,1-di(pyridin-2-yl)ethyl)-6-(3,5-dimethylisoxazol-4-yl)-1H-pyrrolo[3,2-b]pyridin-3-yl)benzonitrile] the pIC50 was 6.00 to 10.00.
